The target in experiment [1] is T1, interaction between GMPPNP-bound recombinant K-Ras4B G12C mutant protein and cRAF RAS-binding domain (cRAF-RBD) (Homo sapiens, UniProt P01116, G12C).
T1 construct: His-tag (N)
The experiment can be described thus: Inhibitory activity on interaction between KRAS G12C and cRAF (Alpha technology). A digest of the protocol:
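His-tagged K-Ras4B G12C (aa 1-169), GMPPNP-loaded, preincubated with compound 1 h at 25° C in pH 7.5 Tris buffer with MgCl2, TCEP, Tween 20. cRAF-RBD (aa 50-132) and Alpha reagents then added for 1.5 h; Alpha signal normalised to DMSO (0%) and GDP-bound KRAS (100%); IC50 from dose titration.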

The next experiment relates to MIA PaCa-2 cells. The experiment can be described thus: Growth inhibition activity on KRAS-G12C mutant cell line (CellTiter-Glo 3D). The class given is cell-based, human. Particulars: MIA PaCa-2, 3-day culture with compound. A digest of the protocol: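 MIA PaCa-2 cells in RPMI1640 with 10% FBS, U-bottom wells, cultured 1 day before compound (0.2% DMSO final), then 3 days at 37 °C, 5% CO2. Viability by CellTiter-Glo 3D luminescence; growth inhibition versus untreated wells gives IC50 (nM).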
(In ATP-based viability assays light output follows the ATP content of the culture.)

[2] abbreviates: IC50, GMPPNP-bound KRAS G12C incubated with compound 25° C. 1 hour, Table 2-1.
Setting [3] is: Homo sapiens, MIA PaCa-2, 72 h, Table 3-1.
[4] abbreviates: GMPPNP-bound KRAS G12C incubated with compound 25° C. 1 hour, Table 2-1, read-out: IC50.

Read-outs that look alike come from different tables or passages of the source.

The values below come from patent US20240262842A1, “SMALL MOLECULE INHIBITORS OF KRAS G12C MUTANT” (Merck Sharp & Dohme LLC, priority 2021, published 2024).

As a reminder, the IC50 is the concentration that gives 50% inhibition. Take `CO[C@H]1CC[C@H](NC/C=C/C(=O)Nc2c(F)cc(C(=O)c3cn4c5c(cccc35)-c3c(C)cccc3OCC4)cc2F)CC1` [Example 6, (E)-N-(2,6-difluoro-4-(10-methyl-4,5-dihydrobenzo[7,8][1,4]oxazocino[6,5,4-hi]indole-1-carbonyl)phenyl)-4-(((1r,4r)-4-methoxycyclohexyl)amino)but-2-enamide]: the IC50 in experiment [1] (IC50, GMPPNP-bound KRAS G12C incubated with compound 25° C. 1 hour, Table 2) was 160 nM; with MIA PaCa-2 cells (Homo sapiens, MIA PaCa-2, 72 h, Table 3), 670 nM.
Consider `CO[C@H]1CC[C@H](NC/C=C/C(=O)Nc2c(F)cc(C(=O)c3cn4c5c(cccc35)-c3c(C)cc5c(nc(C)n5C)c3N(C(C)=O)CC4)cc2F)CC1` [Example 72, (E)-N-(4-(11-acetyl-6,8,9-trimethyl-8,11,12,13-tetra-hydroimidazo[4″,5″: 5′,6′]benzo[1′,2′:2,3][1,4]-diazocino[7,8,1-hi]indole-2-carbonyl)-2,6-difluoro-phenyl)-4-(((1r,4r)-4-methoxycyclohexyl)-amino)but-2-enamide], for which the IC50 came out at 97.8 nM in experiment [1] (setting [2]) and 1170 nM in the experiment with MIA PaCa-2 cells (setting [3]).
For “(E)-N-(2,6-difluoro-4-((S)-6,8,9,12-tetramethyl-12,13-dihydro-8H-imidazo[4″,5″:3′,4′]benzo[1′,2′:7,8][1,4]oxazocino[6,5,4-hi]indole-2-carbonyl)pheny 1)-4-(((1,4r)-4-methoxycyclohexyl)amino)but-2-enamide [Example 20]”, the IC50 in experiment [1] (GMPPNP-bound KRAS G12C incubated with compound 25° C. 1 hour, Table 2, read-out: IC50) worked out at 24 nM; in the experiment on MIA PaCa-2 cells (Table 3) it was 49 nM.
Take `COCc1nc2c3c(c(OC)cc2n1C)-c1cccn2c(C(=O)c4cc(F)c(NC(=O)/C=C/CN[C@H]5CCOC5)c(F)c4)c(C)c(c12)CCN3C` (single isomer, unassigned) [Example 231]: the IC50 in experiment [1] (setting [4]) came to 101 nM; in the experiment on MIA PaCa-2 cells (setting [3]) it was 73.4 nM.
As for `Cn1cnc2c3c(c(C(F)(F)F)cc21)-c1cccn2c(C(=O)c4cc(F)c(NC(=O)/C=C/CN5CC6COCC5C6)c(F)c4)cc(c12)CCO3` (centres unmarked) [Example 230, (E)-4-(3-oxa-6-azabicyclo-[3.2.1]octan-6-yl)-N-(2,6-difluoro-4-(9-methyl-7-(trifluoromethyl)-13,14-dihydro-9H-imidazo-[4″,5″:5′,6′]benzo[1′,2′: 2,3]oxocino[4,5,6-hi]-indolizine-2-carbonyl)-phenyl)but-2-enamide], the IC50 turned out to be 20.1 nM in experiment [1] (setting [4]) and 14.4 nM with MIA PaCa-2 cells (setting [3]).
On the same counts, the results for `COCCNC/C=C/C(=O)Nc1c(F)cc(C(=O)c2cc3c4c(cccn24)-c2c(C(F)(F)F)cc4c(ncn4C)c2N(C)CC3)cc1F` [Example 126, (E)-N-(4-(9,12-dimethyl-7-(trifluoromethyl)-9,12,13,14-tetrahydro-imidazo[4″,5″:5′,6′]benzo-[1′,2′:2,3]azocino[4,5,6-hi]indolizine-2-carbonyl)-2,6-difluorophenyl)-4-((2-methoxyethyl)amino)but-2-enamide] are 18 nM and 14.3 nM.
For `CN1CCc2cc(C(=O)c3cc(F)c(NC(=O)/C=C/CNC4(C)COC4)c(F)c3)n3cccc(c23)-c2c(C(F)(F)F)cc3[nH]cnc3c21` (single isomer, unassigned) [Example 179, (E)-N-(2,6-difluoro-4-(12-methyl-7-(trifluorometh-yl)-9,12,13,14-tetrahydro-imidazo[4″,5″:5′,6′]benzo-[1′,2′:2,3]azocino[4,5,6-hi]indolizine-2-carbonyl)-phenyl)-4-((3-methyloxe-tan-3-yl)amino)but-2-enamide], the IC50 came to 41.6 nM in experiment [1] (setting [4]) and 139 nM in the experiment on MIA PaCa-2 cells (setting [3]).
On the same counts, the results for `CO[C@H]1CC[C@H](NC/C=C/C(=O)Nc2c(F)cc(C(=O)c3cc4c5c(cccn35)-c3c(Cl)cc5c(nc(C)n5C)c3OCC4)cc2F)CC1` [Example 53] are 22.2 nM and 31.9 nM.
Regarding `Cc1nc2c3c(c(C(F)(F)F)cc2n1C)-c1cccc2c(C(=O)c4cc(F)c(NC(=O)/C=C/CNC5(C)COC5)c(F)c4)cn(c12)CCO3` [Example 91], the concentration for half-maximal inhibition (IC50) came to 27.2 nM in experiment [1] (setting [2]) and 8.68 nM with MIA PaCa-2 cells (setting [3]).
In the case of `COc1cc2c(nc(C)n2C)c2c1-c1cccn3c(C(=O)c4cc(F)c(NC(=O)/C=C/CNC5(C)CC5)c(F)c4)cc(c13)CCO2` [Example 194], the IC50 came out at 10.3 nM in experiment [1] (setting [4]) and 6.38 nM with MIA PaCa-2 cells (setting [3]).
